Reference: patent US20160227776A1, “COMPOSITION CONTAINING ATTRACTANT OF NOXIOUS ARTHROPOD COMPRISING PLANT-DERIVED COMPONENT AND ANALOGUE OF SAME” (KYOYU AGRI CO., LTD., priority 2013, published 2016)

Experiments:
Assay type in all cases: in vivo
[1] = test system: Frankliniella occidentalis; assay: Test Example 3: water trap attraction test, mixtures of three compounds; parameters: scale not given here; details: single compound for comparison, 24 hours
Experimental: (§1) Mixed hexane solutions were prepared containing three types of compounds selected from among p-anisaldehyde, benzaldehyde, ethyl nicotinate, geraniol, linalool, nerol, citronellol, methyl anthranilate, methyl benzoate, o-aminoacetophenone, o-anisidine, methyl m-aminobenzoate, methyl o-toluate and α-hexylcinnamaldehyde. […] After impregnating pieces of filter paper with the mixed solution of the three types of compounds, the filter paper was affixed on a plastic vial cap using adhesive tape and set up in a pan trap containing a surfactant. After releasing 30 adult female Frankliniella occidentalis into an acrylic cage, the water trap containing the above-mentioned mixed attractants was set up in the cage. 24 hours later, the number of Frankliniella occidentalis captured in the water trap was counted and the attraction rate was calculated using Equation 1. In addition, hexane solutions were also prepared containing each of the single agents at their respective prescribed concentrations for the sake of comparison, and those solutions were tested in the same manner.
In general, a synergistic attracting effect expected when mixing three given types of attractive compounds and using for treatment is determined from Colby's equation indicated with the following Equation 3: […]
(§2) X: attraction rate when treated with attractive compound A;
(§3) Y: attraction rate when treated with attractive compound B;
Z: attraction rate when treated with attractive compound C; and
E: attraction rate expected when treating by mixing attractive compound A, attractive compound B and attractive compound C (expected attraction rate value).

Drosophila melanogaster = assay: Test Example 5: water trap attraction test, mixtures of two compounds; parameters: key: % = (captured treated − captured untreated)×100/total released; details: weight of each compound 100 μg; 20 adults per cage; 24 hours
Experimental: Mixed hexane solutions were prepared respectively containing two types of compounds selected from among p-anisaldehyde, benzaldehyde, ethyl nicotinate, geraniol, linalool, nerol, citronellol, methyl anthranilate, methyl benzoate, o-aminoacetophenone, o-anisidine, methyl m-aminobenzoate, methyl o-toluate and α-hexylcinnamaldehyde. The weight of each compound was adjusted to 100 μg. After impregnating pieces of filter paper with the mixed solution of the two types of compounds, the filter paper was affixed on a plastic vial cap using adhesive tape and set up in a water trap containing a surfactant. After releasing 20 adult Drosophila melanogaster into an acrylic cage, the water trap containing the above-mentioned mixed attractants was set up in the cage. 24 hours later, the number of D. melanogaster captured in the water trap was counted and the attraction rate was calculated using Equation 1. In addition, hexane solutions were also prepared containing each of the single compounds at their respective prescribed concentrations for the sake of comparison, and those solutions were tested in the same manner.
(§4) Attraction rate=(No. of captured individuals in treatment−no. of captured individuals in untreatment)*100/(total no. released per cage) (1)
(§5) In general, a synergistic attracting effect expected when mixing two given types of attractive compounds and using for treatment is determined from Colby's equation indicated with the following Equation 2: […]
as §2
(§6) Y: attraction rate when treated with attractive compound B; and
(§7) E: attraction rate expected when treating by mixing attractive compound A and attractive compound B (expected attraction rate value).

[2] = test system: Frankliniella occidentalis; assay: Test Example 2: water trap attraction test, mixtures of two compounds; parameters: key: % of released insects: (treated catch − untreated catch)×100/total released; details: single compound for comparison, 24 hours
Experimental: as §1, with “were prepared respectively containing two” for “were prepared containing three”, “respectively containing two types of” for “prepared containing three types of”, “of the two types of” for “of the three types of”, “in a water trap containing” for “in a pan trap containing”, “the single compounds at their” for “the single agents at their”
as §4, §5, §2, §6, §7

Tetranychus urticae = assay: Test Example 4: plastic tube filter paper contact test, mixtures of two compounds; parameters: key: (treated − untreated contacts) ×100 / repetitions, %; details: weight of each compound 1 μg; contact with filter paper within 10 minutes
Experimental: Mixed hexane solutions were prepared respectively containing two types of compounds selected from among p-anisaldehyde, benzaldehyde, ethyl nicotinate, geraniol, linalool, nerol, citronellol, methyl anthranilate, methyl benzoate, o-aminoacetophenone, o-anisidine, methyl m-aminobenzoate, methyl o-toluate and α-hexylcinnamaldehyde. The weight of each compound was adjusted to 1 μg. After impregnating pieces of filter paper (3 mm^2) with the mixed solution of the two types of compounds, the filter paper was set up at the head of a plastic tube (length of 9 cm, 5 mm^2 in diameters). An adult Tetranychus urticae was released into the end of plastic tube. Among 10 minutes, the number of T. urticae contacted the filter paper was counted and the attraction rate was calculated using Equation 1. In addition, hexane solutions were also prepared containing each of the single compounds at their respective prescribed concentrations for the sake of comparison, and those solutions were tested in the same manner.
Attraction rate=(No. of contacted individuals in treatment−no. of contacted individuals in untreatment)*100/(repetition) (1)
as §5, §2, §3, §7

[3] = test system: Frankliniella occidentalis; assay: Test Example 1: water trap attraction test, single compounds; parameters: key: (captured treated − captured untreated)×100/total released per cage; details: single compound, 30 adult females per cage, 24 hours
Experimental: Hexane solutions were prepared respectively containing single compounds selected from among p-anisaldehyde, benzaldehyde, ethyl nicotinate, geraniol, linalool, nerol, citronellol, methyl anthranilate, methyl benzoate, o-aminoacetophenone, o-anisidine, methyl m-aminobenzoate, methyl o-toluate and α-hexylcinnamaldehyde. Each single compound was prepared at five concentration levels consisting of 0.01 μg, 0.1 μg, 1 μg, 10 μg and 100 μg. After impregnating pieces of filter paper with these solutions, the filter paper was affixed on a plastic vial cap using adhesive tape and set up in a water trap containing a surfactant. After releasing 30 adult female Frankliniella occidentalis into an acrylic cage, the water trap containing the above-mentioned attractants was set up in the cage. 24 hours later, the number of Frankliniella occidentalis captured in the water trap was counted and the attraction rate was calculated using Equation 1.
as §4

Thrips tabaci = assay: Test Example 6: yellow sticky trap attraction test, mixtures of two compounds; parameters: key: % = (captured treated − captured untreated)×100/total released per cup; details: weight of each compound 1 μg; 10 adults per cup; 24 hours
Experimental: Mixed hexane solutions were prepared respectively containing two types of compounds selected from among p-anisaldehyde, benzaldehyde, ethyl nicotinate, geraniol, linalool, nerol, citronellol, methyl anthranilate, methyl benzoate, o-aminoacetophenone, o-anisidine, methyl m-aminobenzoate, methyl o-toluate and α-hexylcinnamaldehyde. The weight of each compound was adjusted to 1 μg. After impregnating pieces of filter paper (3 mm^2) with the mixed solution of the two types of compounds, the filter paper was affixed on a yellow sticky trap (1 cm^2). After releasing 10 adult Thrips tabaci into a plastic cup (150 ml), the yellow sticky trap containing the above-mentioned mixed attractants was set up at the side of the plastic cup. 24 hours later, the number of T. tabaci captured in the yellow sticky trap was counted and the attraction rate was calculated using Equation 1. In addition, hexane solutions were also prepared containing each of the single compounds at their respective prescribed concentrations for the sake of comparison, and those solutions were tested in the same manner.
Attraction rate=(No. of captured individuals in treatment−no. of captured individuals in untreatment)*100/(total no. released per cup) (1)
as §5, §2, §3, §7

Structure (SMILES) | Attraction Rate ([1]; 100 μg) | Attraction Rate (Drosophila melanogaster) | Attraction Rate ([2]; 100 μg) | Attraction Rate (Tetranychus urticae) | Attraction Rate ([3]; Amount 0.01 μg) | Attraction Rate ([3]; Amount 0.1 μg) | Attraction Rate ([3]; Amount 1 μg) | Attraction Rate ([3]; Amount 10 μg) | Attraction Rate ([3]; Amount 100 μg) | Attraction Rate ([1]; 1 μg) | Attraction Rate ([2]; 1 μg) | Attraction Rate (Thrips tabaci) | Attraction Rate ([1]; 10 μg) | Attraction Rate ([2]; 10 μg)
CC(=O)c1ccccc1N [o-aminoacetophenone] | 36 | 13 | 36 | 38 | 3 | 17 | 23 | 30 | 36 | – | – | – | – | –
O=Cc1ccccc1 [Benzaldehyde, benzaldehyde] | – | 3 | – | 32 | 23 | 33 | 36 | 30 | 27 | 36 | 36 | – | – | –
COc1ccccc1N [o-anisidine] | 40 | 8 | 40 | 15 | 6 | 10 | 20 | 30 | 40 | – | – | 0 | – | –
C=CC(C)(O)CCC=C(C)C (centres unmarked) [Linalool, linalool] | – | 3 | – | 5 | 13 | 13 | 20 | 13 | 7 | 20 | 20 | 0 | – | –
CC(C)=CCC/C(C)=C\CO [Nerol, nerol] | – | 3 | – | 5 | 10 | 33 | 33 | 30 | 27 | 33 | 33 | – | – | –
COC(=O)c1cccc(N)c1 [Methyl m-aminobenzoate, methyl m-aminobenzoate] | 40 | 8 | 40 | – | 3 | 10 | 27 | 33 | 40 | – | – | 0 | – | –
CCCCCCC(C=O)=Cc1ccccc1 [α-hexylcinnamaldehyde] | – | 8 | – | – | 13 | 27 | 33 | 30 | 30 | 33 | 33 | 7 | – | –
COC(=O)c1ccccc1 [Methyl benzoate, methyl benzoate] | 46 | 8 | 36 | 25 | 7 | 23 | 27 | 33 | 36 | – | – | – | – | –
CC(C)=CCC/C(C)=C/CO [Geraniol, geraniol] | – | 23 | – | – | 10 | 17 | 30 | 33 | 27 | – | – | 0 | 33 | 33
COC(=O)c1ccccc1N [Methyl anthranilate, methyl anthranilate] | 20 | 8 | 20 | – | 10 | 13 | 13 | 17 | 20 | – | – | 10 | – | –
CCOC(=O)c1cccnc1 [Ethyl nicotinate, ethyl nicotinate] | 43 | 3 | 43 | 15 | 13 | 27 | 30 | 36 | 43 | – | – | 10 | – | –
COC(=O)c1ccccc1C [Methyl o-toluate, methyl o-toluate] | 23 | 3 | 23 | 15 | 3 | 13 | 17 | 20 | 23 | – | – | – | – | –
COc1ccc(C=O)cc1 [p-anisaldehyde] | 36 | 3 | 36 | – | 17 | 23 | 23 | 30 | 36 | – | – | 10 | – | –
CC(C)=CCCC(C)CCO (centres unmarked) [Citronellol, citronellol] | 23 | 3 | 23 | – | 7 | 20 | 20 | 20 | 23 | – | – | – | – | –
